Where a SMILES comes first, the peptide text is derived from it.
Biological target: T1, Glutathionylspermidine synthase (Crithidia fasciculata, UniProt P90518)
T1 sequence (P90518 whole entry): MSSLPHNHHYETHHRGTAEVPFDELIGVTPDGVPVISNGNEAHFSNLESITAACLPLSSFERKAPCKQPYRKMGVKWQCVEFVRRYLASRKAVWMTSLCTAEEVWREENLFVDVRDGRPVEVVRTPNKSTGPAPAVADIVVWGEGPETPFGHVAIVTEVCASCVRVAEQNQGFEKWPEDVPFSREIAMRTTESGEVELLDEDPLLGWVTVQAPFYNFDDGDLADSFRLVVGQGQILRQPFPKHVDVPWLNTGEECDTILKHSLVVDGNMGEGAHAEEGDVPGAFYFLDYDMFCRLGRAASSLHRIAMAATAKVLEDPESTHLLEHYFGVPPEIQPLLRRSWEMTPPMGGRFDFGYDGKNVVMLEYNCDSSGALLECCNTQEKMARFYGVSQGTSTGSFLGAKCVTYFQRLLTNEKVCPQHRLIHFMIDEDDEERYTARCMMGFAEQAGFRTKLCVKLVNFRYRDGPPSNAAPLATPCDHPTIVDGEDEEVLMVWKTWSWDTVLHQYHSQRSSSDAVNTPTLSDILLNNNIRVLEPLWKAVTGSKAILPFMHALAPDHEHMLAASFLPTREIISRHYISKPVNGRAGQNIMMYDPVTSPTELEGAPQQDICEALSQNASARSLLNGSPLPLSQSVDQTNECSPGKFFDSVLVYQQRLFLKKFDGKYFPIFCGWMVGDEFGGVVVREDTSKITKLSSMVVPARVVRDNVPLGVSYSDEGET
Test: Inhibitory activity against amidase free Glutathionylspermidine Synthetase mutant (C79A)

SMILES: CC(C)C[C@H](NC(=O)CC[C@H](N)C(=O)O)C(=O)NCC(N)=O [2-Amino-4-[1-(carbamoylmethyl-carbamoyl)-3-methyl-butylcarbamoyl]-butyric acid] (HELM PEPTIDE1{[gGlu].L.G.[am]}$$$$V2.0)
- IC50: > 2 µM

Reference: BindingDB's records for doi:10.1016/s0960-894x(02)00489-4 (University of Antwerp (Uia), 2002)
